The target in assay [1] is C. albicans CYP51F1 Y132H mutant (Candida albicans, UniProt P10613, Y132H). The assay is described as follows: Spectral binding titration of purified CYP51F1 Y132H mutant.
Assay [2] has as its target C. albicans CYP51F1 wild-type (Candida albicans, UniProt P10613). The assay is described as follows: Spectral binding titration of purified CYP51F1 wild type.
Assay [3] deals with C. albicans CYP51F1 R467K mutant (Candida albicans, UniProt P10613, R467K). The assay is described as follows: Spectral binding titration of purified CYP51F1 R467K mutant.
For assay [4], the target named is C. albicans CYP51F1 D116E mutant (Candida albicans, UniProt P10613, D116E). Briefly: Spectral binding titration of purified CYP51F1 D116E mutant.
Assay [5] deals with C. albicans CYP51F1 F105L mutant (Candida albicans, UniProt P10613, F105L). The assay is described as follows: Spectral binding titration of purified CYP51F1 F105L mutant.

What is called Kd is the concentration at which binding is half-saturated.

Consider `Clc1ccc(COC(Cn2ccnc2)c2ccc(Cl)cc2Cl)cc1` (centres unmarked) [Econazole, econazole], for which the Kd in assay [1] came to 420 ± 60 nM; in assay [2] it was 200 ± 40 nM; in assay [3], 130 ± 30 nM; in assay [4], 140 ± 30 nM; in assay [5], 100 ± 30 nM.
`OC(Cn1cncn1)(Cn1cncn1)c1ccc(F)cc1F` [Fluconazole, fluconazole]: the Kd was determined as 150 ± 60 nM in assay [1]; 60 ± 10 nM in assay [2]; 60 ± 10 nM in assay [3]; 30 ± 10 nM in assay [4]; 20 ± 10 nM in assay [5].
For `CCC(C)n1ncn(-c2ccc(N3CCN(c4ccc(OCC5COC(Cn6cncn6)(c6ccc(Cl)cc6Cl)O5)cc4)CC3)cc2)c1=O` (centres unmarked) [Itraconazole, itraconazole], the Kd is 190 ± 60 nM in assay [2], 180 ± 40 nM in assay [3], 150 ± 30 nM in assay [4] and 160 ± 40 nM in assay [5].
As for `CC(=O)N1CCN(c2ccc(OCC3COC(Cn4ccnc4)(c4ccc(Cl)cc4Cl)O3)cc2)CC1` (centres unmarked) [Ketoconazole, ketoconazole], the Kd in assay [1] was 540 ± 70 nM; in assay [2] it was 420 ± 80 nM; in assay [3], 660 ± 130 nM; in assay [4], 430 ± 80 nM; in assay [5], 170 ± 40 nM.
On to `CC(C)=CCC[C@@H](C)[C@H]1CC[C@@]2(C)C3=C(CC[C@]12C)[C@@]1(C)CC[C@H](O)C(C)(C)[C@@H]1CC3` [lanosterol, Lanosterol], for which the Kd in assay [2] was 6700 nM.

The values above are taken from article PMC3079055 (Archives of biochemistry and biophysics, 2011).
